Source: BigSolDB 2.1

O=C1CCCC(=O)O1
Details	solubility (mole fraction)
in acetic acid, 279.65 K	0.0783
in acetic acid, 282.25 K	0.0967
in acetic acid, 284.55 K	0.119
in acetic acid, 287.05 K	0.152
in acetic acid, 289.55 K	0.183
in acetic acid, 291.95 K	0.223
in acetic acid, 294.25 K	0.27
in acetic acid, 296.65 K	0.323
in acetic acid, 299.15 K	0.376
in acetic acid, 302.15 K	0.436
in acetic acid, 304.05 K	0.502
in acetic acid, 306.25 K	0.557
in acetyl acetate, 278.45 K	0.153
in acetyl acetate, 282.45 K	0.205
in acetyl acetate, 283.85 K	0.231
in acetyl acetate, 285.45 K	0.259
in acetyl acetate, 287.65 K	0.299
in acetyl acetate, 290.55 K	0.342
in acetyl acetate, 293.05 K	0.388
in acetyl acetate, 296.95 K	0.437
in acetyl acetate, 300.25 K	0.502
in acetyl acetate, 304.05 K	0.562
in tetrachloromethane, 282.25 K	0.00064
in tetrachloromethane, 285.45 K	0.00073
in tetrachloromethane, 288.05 K	0.00097
in tetrachloromethane, 291.15 K	0.00141
in tetrachloromethane, 293.95 K	0.00182
in tetrachloromethane, 295.95 K	0.00225
in tetrachloromethane, 300.25 K	0.00268
in tetrachloromethane, 303.25 K	0.00321
in tetrachloromethane, 306.25 K	0.0039
in tetrachloromethane, 309.85 K	0.00487
in tetrachloromethane, 312.95 K	0.00544
in tetrachloromethane, 315.55 K	0.00586
in tetrachloromethane, 318.25 K	0.00619
in tetrachloromethane, 320.45 K	0.00639
